US11147847B2, “Extracts from plants of the Moringaceae family and methods of making” (Rutgers, The State University of New Jersey, priority 2013, dated 2021)
pIC50: −log10 of the molar value.

Columns and labels:
[1] = Accelerated stability of MICs in moringa extract at 37° C. (LCMS); type: physicochemical; conditions: moringa extract stored at 37° C. for 30 days, compared to day 0
HII4E liver cells = assay: In vitro gluconeogenesis: glucose production in liver cells; type: cell-based, rat; conditions: same concentrations as SF
Experimental: (§1) H4IIE rat hepatoma cells (CRL-1548, American Type Culture Collection, Manassas, Va.) were assayed for glucose production as previously described (21). Cell viability was measured by the 3-(4,5-Dimethyl-2-thiazolyl)-2,5-diphenyltetrazolium bromide (MTT; TCI, Portland, Oreg.) assay (22). RNA extraction, cDNA synthesis and qPCR for gene expression of PEPCK and G6P were performed as described above.

iNOS = assay: LPS-induced iNOS gene expression in RAW 264.7 macrophages (qPCR); type: cell-based; conditions: 1 and 5 μM; LPS-induced RAW 264.7
Experimental: (§2) All reagents were supplied from Sigma-Aldrich Co. (St. Louis, Mo.) unless otherwise noted. RAW 264.7 macrophages (ATCC TIB-71) were maintained in Dulbecco's modified Eagle's medium (Caisson, North Logan, Utah) supplemented with 100 U/mL penicillin, 100 μg/mL streptomycin, and 10% fetal bovine serum. Cells were incubated at 37° C. in a 5% CO2 humidified atmosphere and subcultured by cell scraping. For experiments, RAW cells were plated at a density of 4×10^5 cells/mL in 24-well plates. Cells were incubated overnight (18 h), washed with warm 37° C. PBS, and medium was replaced fresh DMEM medium. […] Lipopolysaccharide (1 μg/mL) was added after 2 h incubation with treatments to elicit inflammatory responses. Cells were treated in duplicate or triplicate. After an additional 6 h incubation period, media were collected and cells were washed with PBS prior to collection in TRIzol® Reagent (Ambion, Life Technologies). […]
(§3) Total RNA was extracted from cells according to manufacturer's specifications. […] RNA integrity was evaluated by running about 1 μg of RNA on a 1% agarose gel. […]
(§4) Quantitative PCR amplifications were performed on an ABI 7300 Real-Time PCR System (Applied Biosystems) with the following thermal cycler profile: 2 minutes, 50° C.; 10 minutes, 95° C.; 15 seconds, 95° C.; 1 minute, 60° C. for the dissociation stage; 15 seconds, 95° C.; 1 minutes, 60° C.; and 15 seconds, 95° C. […]

IL-6 = assay: LPS-induced IL-6 gene expression in RAW 264.7 macrophages (qPCR); type: cell-based; conditions: 5 μM; LPS-induced RAW 264.7
Experimental: as §2, §3, §4

[2] = 1:5 ratio preparations, rotoevaporation 1 hour at 50° C., compared to freeze-dried samples
From the text: Drying the 1:5 ratio preparations can be achieved by rotoevaporation, followed by freeze-drying or spray drying. […] Further concentration of MICs and removal of sugars from the extract can also be performed with solid phase-extraction (SPE).

TNF-α = assay: LPS-induced TNF-α gene expression in RAW 264.7 macrophages (qPCR); type: cell-based; conditions: any of the concentrations tested; LPS-induced RAW 264.7
Experimental: as §2, §3, §4

IL-1β = assay: LPS-induced IL-1β gene expression in RAW 264.7 macrophages (qPCR); type: cell-based; conditions: 1 and 5 μM; LPS-induced RAW 264.7
Experimental: as §2, §3, §4

RAW 264.7 macrophages = assay: MTT-based cell viability assay; conditions: concentrations tested in anti-inflammatory assays
Experimental: The effect of the treatments on cell viability was measured using MTT [3-(4,5-dimethyl-2-thiazolyl)-2,5-diphenyltetrazolium bromide] (TCI, Portland, Oreg.) (Mosmann, 1983). MTT (5 mg/mL) was dissolved in PBS (Cayman Chemical, Ann Arbor, Mich.), filtered through a 0.22 μm membrane and added to treated cells during the last 3-4 hours of treatment. Media were carefully aspirated and cells were dissolved in DMSO. The absorbance was read at 570 nm.

[3] = In vitro gluconeogenesis: glucose production in liver cells; type: cell-based, rat; conditions: Rattus norvegicus; range of 5 concentrations, HII4E liver cells
Experimental: as §1

| Structure (SMILES) | degradation of MIC in moringa extract [1] | glucose production, activity compared to SF (HII4E liver cells) | mRNA expression of iNOS (iNOS) | IL-6 gene expression (IL-6) | loss of MIC under rotoevaporation conditions [2] | TNF-α gene expression (TNF-α) | mRNA expression of IL-1β (IL-1β) | cytotoxicity (MTT-based cell viability) (RAW 264.7 macrophages) | pIC50 [3] |
| --- | --- | --- | --- | --- | --- | --- | --- | --- | --- |
| C[C@@H]1O[C@@H](Oc2ccc(CN=C=S)cc2)[C@H](O)[C@H](O)[C@H]1O [MIC-1, 4-[(α-rhamnosyloxy)benzyl]isothiocyanate] | approximately 80% | superior activity to SF | significant reduction | decrease IL-6 gene expression significantly | No significant loss | no reduction | significant reduction | no signs of cytotoxicity |  |
| CC(=O)O[C@@H]1[C@@H](O)[C@@H](O)[C@H](Oc2ccc(CN=C=S)cc2)O[C@H]1C [MIC-4, 4-[(4′-O-acetyl-α-rhamnosyloxy)benzyl]isothiocyanate] | ~20% | superior activity to SF | significant reduction |  | No significant loss | no reduction | significant reduction | no signs of cytotoxicity |  |
| CN(C)C(=N)N=C(N)N [metformin, reference compound] |  |  |  |  |  |  |  |  | 3.10 |
